One experiment has as its system type I collagen. Nature of the experiment: Collagen 1 expression in WJMSC cells, Western blotting. The conditions noted are these: for expression of pro-collagen 1: FIG. 3(B), ImageJ fold change vs control, normalized to β-actin. The format is cell-based, human. As to the method: (§1) Wharton's Jelly mesenchymal stein cells (WJMSC cells: BCRC H-WJ001) were cultured in α-MEM medium supplemented with 10% to 20% of fetal bovine serum (FBS) and 2 to 8 ng/mL of human basic fibroblast growth factor (bFGF). In the present invention, the WJMSC cells are incubated in α-MEM medium supplemented with 10% FBS and 4 ng/mL bFGF. In addition, the WJMSC cells are incubated in an incubator with a temperature of 37° C. and 5% carbon dioxide (CO2).
(§2) The WJMSC cells were seeded onto culture dishes at a cell density of 5×10^4 cells/cm^2, and incubated in a first medium of 10% FBS α-MEM medium supplemented with and 4 ng/mL bFGF for 24 hours. After 24 hours, the first medium was removed and the WJMSC cells were washed by 1× phosphate-buffered saline (PBS) for two to three times. The WJMSC cells were then incubated in a second medium for 48 hours. The second medium contains α-MEM medium supplemented with bFGF (ProSpece cat: cyt-218-b), proline (Calbiochem, cat: #5370), arginine (Merck, cat: #1011542) or L-ascorbic acid (Sigma, cat: SI-A8960) as experimental design. After 48 hours, the cells were collected for protein extraction, and expression of type I collagen (abbreviated to “collagen 1”) and type III collagen (abbreviated to “collagen 3”) was examined.
(§3) The cell medium was removed and the cells were washed by 1× PBS for two times. The cells were treated with 10 mM EDTA (ethylenediaminetetraacetic acid)-PBS solution or 0.5 M acetic acid and scraped down at 4° C. to obtain a first mixture. The first mixture was placed into a centrifuge tube for lysing cells by a sonication process. The sonication process comprises sonication at […] for 15 seconds by an ultrasonicator for three times, and the time interval between each sonication is 30 seconds. After the sonication process, the first mixture was centrifuged at 4° C. at a speed of 2000 rpm for 30 minutes to obtain a protein crud extract.
(§4) In addition, a cell lysis buffer can be used for cell protein extraction. The extraction method comprises the steps of removing cell medium, washing the cells by 1× PBS twice, adding RIPA cell lysis buffer containing 10 mM EDTA into the cells and shaking for at least 30 minutes, scraping down the cells to obtain a cells-lysis buffer mixture, placing the cells-lysis buffer mixture into a centrifuge tube, and centrifuging at 4° C. at a speed of 12000 rpm for at least 15 minutes to obtain a protein crud extract.
(§5) The protein crud extract was then mixed with 25% saturated […] solution, or mixed with 3M sodium chloride (NaCl) solution for reaction at 4° C. for 24 hours to perform a salting-out process. After 24 hours, the mixed solution was centrifuged at 4° C. at a speed of 3500 g for 30 minutes, and a supernatant was removed to preserve a sediment. The sediment was washed by 1× PBS, and centrifuged at 4° C. at a speed of 3500 g for 30 minutes. The sediment was preserved and dissolved by 0.5 M acetic acid solution to obtain a protein extract. The protein extract was then analyzed by Western blotting assay to detect expression of collagen. All the experiments were repeated at least twice and the results with representative are disclosed.
(§6) FIG. 3(A) is a diagram showing effects of L-ascorbic acid and proline on collagen expression in WJMSC cells. In FIG. 3(A), “AA(5)” represents that WJMSC cells were treated with 5 μM L-ascorbic acid, “Pro(2)” represents that WJMSC cells were treated with 2 mM proline, and “bFGF(4)” represents that the WJMSC cells were treated with 4 ng/mL bFGF. In addition, pro-collagen 1, collagen 1, pro-collage 3 and collagen 3 are marked by arrow signs in FIG. 3(A). […] Referring to FIG. 3(B), the results in FIG. 3(A) are quantified by ImageJ software, the quantification method comprises steps of acquiring a density value of a band of a target in Western blotting and normalizing the density value with a density value of β-actin of the same sample to obtain a normalization value. […]

The test system of the next experiment is type III collagen. Put plainly: Collagen 3 expression in WJMSC cells, Western blotting. It counts as cell-based, human. The settings on record: for expression of pro-collagen 3: FIG. 3(B), ImageJ fold change vs control, normalized to β-actin. How it is done: as §1, §2, §3, §4, §5, §6
For orientation: In western blotting, separated proteins are transferred to a membrane and probed.

The subject of experiment [1] is Human foreskin fibroblasts (HS68). Nature of the experiment: Wound healing of HS68 cells on collagen-coated culture dish. The settings on record: for Wound size (%): dish coated with 50 μg/mL collagen; for Wound healing percentage (%): relative to wound size at 2 hours. The format is cell-based. How it is done: Human foreskin fibroblasts (HS68) were seed and attached onto a culture dish at a density of 2×10^4 cells/cm^2 and were incubated in 10% FBS DMEM medium for 24 hours. In control group, an ordinary culture dish without any treatment was used. In collagen group, a collagen-coated culture dish used is prepared by dropping appropriate amount of collagen extracted from WJMSC cells at a concentration of 50 μg/mL on a surface of the culture dish, spreading the collagen evenly, and placing the culture dish into a 37° C. incubator overnight to obtain the collagen-coated culture dish. After the HS68 cells were cultured for 24 hours, the culture medium of HS68 cells was removed and the cells were washed by 1× PBS. A wound was generated on the attached cells, and the wound was observed and photographed at 0, 2, 4, 6, and 20 hours after wound generation by a microscopy. The photographs were analyzed by ImageJ software. The region has no cell on it is considered as a wound size, and a wound healing percentage is calculated by the following formula:
Wound healing percentage (%)=[(wound size at observed time point−wound size at 2 hours after wound generation)/wound size at 2 hours after wound generation]×100%.

Where [2] appears, read: WJMSC cells treated with 5 μM L-ascorbic acid.
Where [3] appears, read: WJMSC cells treated with 0.2 mM to 20 mM of arginine (FIG. 1).
Setting [4] is: WJMSC cells treated with arginine alone, 0.2 mM (FIG. 2).
Setting [5] is: WJMSC cells treated with 4 ng/mL bFGF.
The mark [6] stands for this setting: WJMSC cells treated with 0.2 mM proline.
The mark [7] stands for this setting: WJMSC cells treated with 2 mM proline, vs control.
Setting [8] is: WJMSC cells treated with 5 mM to 20 mM proline, same enhancement as with 2 mM.

On to `O=C1O[C@H]([C@@H](O)CO)C(O)=C1O` [L-ascorbic acid], for which the “expression of pro-collagen 1” value with type I collagen (5 μM L-ascorbic acid) was “enhanced”. Further, in the experiment with type I collagen (setting [2]), the “expression of collagen 1” value is “enhanced”. The “expression of pro-collagen 3” value with type III collagen (5 μM L-ascorbic acid) is “enhanced”. Moreover, the “expression of collagen 3” value in the experiment with type III collagen (setting [2]) is recorded as “enhanced”.

With `N=C(N)NCCC[C@H](N)C(=O)O` [arginine], the “expression of collagen 1” value in the experiment on type I collagen (setting [3]) is “not is enhanced”; in the experiment with type I collagen (setting [4]), “not enhanced”. The “expression of collagen 3” value is given as “not is enhanced” with type III collagen (setting [3]) and “not enhanced” in the experiment on type III collagen (setting [4]).

For the molecule Collagen, the “Wound size (%)” value in experiment [1] (2 hr after wound generation) worked out at 15.2%; in experiment [1] (4 hr after wound generation), 13.3%; in experiment [1] (6 hr after wound generation), 9.4%; in experiment [1] (20 hr after wound generation) it was 0.0%. Also, the “Wound healing percentage (%)” value in experiment [1] (4 hr after wound generation) is listed as 13.0%; in experiment [1] (6 hr after wound generation), 38.0%; in experiment [1] (6 hr after wound generation, listed as collagen) it was 38%; in experiment [1] (20 hr after wound generation), 100.0%; in experiment [1] (20 hr after wound generation, listed as collagen), 100%. Besides, the cell density result in experiment [1] (20 hr, 10× objective lens, vs control group (FIG. 6)) is on record as “higher”. The “cells observed on the wound region” value in experiment [1] (after 4 hours and 6 hours of wound generation, microscopy, vs control group (FIG. 6)) is reported as “more significant”. Further, the “wound region covered by cells” value in experiment [1] (after 20 hours of wound generation, microscopy (FIG. 6)) is “all covered by cells”. For the same molecule, the “wound healing percentage, collagen group compared with control group” value in experiment [1] (over the observed time points) was “better”.

As to “bFGF: human basic fibroblast growth factor (bFGF)”, the “expression of pro-collagen 1” value in the experiment on type I collagen (4 ng/mL bFGF) is on record as “enhanced”. Also, the “expression of collagen 1” value in the experiment with type I collagen (setting [5]) is given as “enhanced”. In addition, the “expression of pro-collagen 3” value in the experiment with type III collagen (4 ng/mL bFGF) is reported as “enhanced”. In addition, the “expression of collagen 3” value in the experiment with type III collagen (setting [5]) is on record as “enhanced”.

Take `O=C(O)[C@@H]1CCCN1` [proline]: in the experiment on type I collagen (2 mM proline), the “expression of pro-collagen 1” value is recorded as “enhanced”. In addition, the figures for the “expression of collagen 1” value in the experiment with type I collagen (setting [6]), in the experiment with type I collagen (setting [7]) and with type I collagen (setting [8]) were “enhanced”, “enhanced” and “not achieved”, respectively. The “expression of pro-collagen 3” value in the experiment on type III collagen (2 mM proline) is reported as “enhanced”. For the same molecule, the “expression of collagen 3” value is on record as “enhanced” in the experiment with type III collagen (setting [6]), “enhanced” in the experiment with type III collagen (setting [7]) and “not achieved” with type III collagen (setting [8]).
